From patent publication US9902702B2, “Spirocycloheptanes as inhibitors of rock” (BRISTOL-MYERS SQUIBB COMPANY, priority 2014, dated 2018)
Where a name gives a salt, the structure may show the parent alone.

Biological target: ROCK2 (Homo sapiens, UniProt O75116)
Test: ROCK assay: phosphorylation of FITC peptide substrate, LABCHIP 3000 mobility shift
Format: biochemical
Settings: 5 μM ATP, 1.5 μM peptide substrate; read-out: ROCK2 Activity (ROCK IC50 range)
Summary of the method: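 Rho kinase variant phosphorylates 1.5 μM FITC-AHA-AKRRRLSSLRA-OH with 5 μM ATP in 20 mM HEPES pH 7.5, 20 mM MgCl2, 0.015% Brij-35, 4 mM DTT, DMSO <2%. EDTA stops the reaction, and phospho and non-phospho peptides are resolved by LabChip 3000 mobility shift. IC50 from dose-response curve fit.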

ROCK2, sequence (O75116 whole entry, species assumed): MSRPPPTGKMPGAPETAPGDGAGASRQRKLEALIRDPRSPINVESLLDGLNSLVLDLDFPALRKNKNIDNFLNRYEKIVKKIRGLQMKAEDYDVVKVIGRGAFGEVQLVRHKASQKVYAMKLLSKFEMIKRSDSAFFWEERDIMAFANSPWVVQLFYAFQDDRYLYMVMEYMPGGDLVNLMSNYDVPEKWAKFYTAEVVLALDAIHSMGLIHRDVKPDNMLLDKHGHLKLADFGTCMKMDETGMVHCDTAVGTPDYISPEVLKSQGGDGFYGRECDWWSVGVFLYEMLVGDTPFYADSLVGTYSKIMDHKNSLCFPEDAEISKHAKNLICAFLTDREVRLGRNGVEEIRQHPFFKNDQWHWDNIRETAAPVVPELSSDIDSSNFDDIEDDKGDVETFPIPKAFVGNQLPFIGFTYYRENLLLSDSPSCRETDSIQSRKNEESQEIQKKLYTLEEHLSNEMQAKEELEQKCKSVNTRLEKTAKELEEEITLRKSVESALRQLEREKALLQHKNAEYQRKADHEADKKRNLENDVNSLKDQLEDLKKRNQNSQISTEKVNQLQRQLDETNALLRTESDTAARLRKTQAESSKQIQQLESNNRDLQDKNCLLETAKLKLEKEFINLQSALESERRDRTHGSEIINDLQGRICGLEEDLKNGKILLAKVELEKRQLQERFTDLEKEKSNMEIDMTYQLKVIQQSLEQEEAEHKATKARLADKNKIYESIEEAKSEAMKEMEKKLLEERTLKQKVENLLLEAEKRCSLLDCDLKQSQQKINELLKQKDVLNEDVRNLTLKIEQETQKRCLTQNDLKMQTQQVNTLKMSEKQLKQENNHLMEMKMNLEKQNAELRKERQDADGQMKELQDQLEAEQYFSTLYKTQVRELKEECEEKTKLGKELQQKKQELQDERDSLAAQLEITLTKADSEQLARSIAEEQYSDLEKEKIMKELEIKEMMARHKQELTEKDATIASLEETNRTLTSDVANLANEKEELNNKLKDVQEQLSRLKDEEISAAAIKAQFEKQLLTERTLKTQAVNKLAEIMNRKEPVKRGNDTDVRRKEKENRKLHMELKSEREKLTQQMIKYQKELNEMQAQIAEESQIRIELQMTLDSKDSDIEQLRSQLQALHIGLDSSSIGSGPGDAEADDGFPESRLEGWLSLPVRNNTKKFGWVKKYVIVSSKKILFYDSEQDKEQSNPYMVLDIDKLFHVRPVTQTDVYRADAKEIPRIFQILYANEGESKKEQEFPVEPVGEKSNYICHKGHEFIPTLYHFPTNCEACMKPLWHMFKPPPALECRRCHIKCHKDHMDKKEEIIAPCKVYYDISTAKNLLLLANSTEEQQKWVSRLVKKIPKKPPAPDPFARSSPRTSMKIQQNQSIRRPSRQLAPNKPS

Compound | IC50
[2H]C([2H])([2H])n1cc(-c2ccc3c(c2)CN(C(=O)NC2CC4(C2)CC(c2n[nH]c(=O)c5ccccc25)C4)C3)cn1 [Example 253, 5-(1-(^2H3)methyl-1H-pyrazol-4-yl)-N-((aR)-6-(4-oxo-3,4-dihydrophthalazin-1-yl)spiro[3.3]heptan-2-yl)isoindoline-2-carboxamide] | 5.1 to 15 nM
CC1(C)CN(C(=O)NC2CC3(C2)CC(c2n[nH]c(=O)c4ccccc24)C3)c2ccccc21 (stereo not drawn) [Example 255] | 5.1 to 15 nM
O=C(NC1CC2(C1)CC(c1n[nH]c(=O)c3ccccc13)C2)N1CCc2cccnc21 [Example 256, N-((aR)-6-(4-oxo-3,4-dihydrophthalazin-1-yl)spiro[3.3]heptan-2-yl)-2,3-dihydro-1H-pyrrolo[2,3-b]pyridine-1-carboxamide] | 15.1 to 100 nM
O=C(NC1CC2(C1)CC(c1n[nH]c(=O)c3ccccc13)C2)N1Cc2cccnc2C1 (stereo not drawn) [Example 257] | 15.1 to 100 nM
COc1ccc2c(c1)CCN2C(=O)NC1CC2(C1)CC(c1n[nH]c(=O)c3ccccc13)C2 [Example 258, 5-methoxy-N-((aR)-6-(4-oxo-3,4-dihydrophthalazin-1-yl)spiro[3.3]heptan-2-yl)indoline-1-carboxamide] | 5.1 to 15 nM
O=C(NC1CC2(C1)CC(c1n[nH]c(=O)c3ccccc13)C2)N1CCc2ccc(C(F)(F)F)cc21 [Example 259, N-((aR)-6-(4-oxo-3,4-dihydrophthalazin-1-yl)spiro[3.3]heptan-2-yl)-6-(trifluoromethyl)indoline-1-carboxamide] | 5.1 to 15 nM
CN(C)S(=O)(=O)c1ccc2c(c1)CCN2C(=O)NC1CC2(C1)CC(c1n[nH]c(=O)c3ccccc13)C2 [Example 260, 5-(N,N-dimethylsulfamoyl)-N-((aR)-6-(4-oxo-3,4-dihydrophthalazin-1-yl)spiro[3.3]heptan-2-yl)indoline-1-carboxamide] | 5.1 to 15 nM
O=C(NC1CC2(C1)CC(c1n[nH]c(=O)c3ccccc13)C2)N1CC(CN2CCOCC2)c2ccccc21 [Example 261, 3-(morpholinomethyl)-N-((aR)-6-(4-oxo-3,4-dihydrophthalazin-1-yl)spiro[3.3]heptan-2-yl)indoline-1-carboxamide] | 15.1 to 100 nM
Cc1ccc(-c2ncc3c(n2)CN(C(=O)NC2CC4(C2)CC(c2n[nH]c(=O)c5ccccc25)C4)C3)cc1 [Example 262, N-((aR)-6-(4-oxo-3,4-dihydrophthalazin-1-yl)spiro[3.3]heptan-2-yl)-2-(p-tolyl)-5H-pyrrolo[3,4-d]pyrimidine-6(7H)-carboxamide] | 100 to 2100 nM
COc1ccc2c(c1)CN(C(=O)NC1CC3(C1)CC(c1n[nH]c(=O)c4ccccc14)C3)C2 [Example 263, 5-methoxy-N-((aR)-6-(4-oxo-3,4-dihydrophthalazin-1-yl)spiro[3.3]heptan-2-yl)isoindoline-2-carboxamide] | 5.1 to 15 nM
O=C(NC1CC2(C1)CC(c1n[nH]c(=O)c3ccccc13)C2)N1Cc2ccncc2C1 [Example 264, N-((aR)-6-(4-oxo-3,4-dihydrophthalazin-1-yl)spiro[3.3]heptan-2-yl)-1H-pyrrolo[3,4-c]pyridine-2(3H)-carboxamide] | 15.1 to 100 nM
O=C(N[C@H]1CC2(C1)C[C@H](c1n[nH]c(=O)c3ccccc31)C2)N1CC2(CCNCC2)c2ccccc21 (stereo partly drawn) [Example 265, N-((aR)-6-(4-oxo-3,4-dihydrophthalazin-1-yl)spiro[3.3]heptan-2-yl)spiro[indoline-3,4′-piperidine]-1-carboxamide] | 100 to 2100 nM
[H][C@]1(c2n[nH]c(=O)c3ccccc32)C[C@]2(C[C@@H](N(C)C(=O)c3nn(C)c4ccccc34)C2)C1 (stereo partly drawn) [Example 266, N,1-dimethyl-N-((aR)-6-(4-oxo-3,4-dihydrophthalazin-1-yl)spiro[3.3]heptan-2-yl)-1H-indazole-3-carboxamide] | 100 to 2100 nM
[H][C@]1(c2n[nH]c(=O)c3ccccc32)C[C@]2(C[C@@H](N(CC)C(=O)c3nn(C)c4ccccc34)C2)C1 (stereo partly drawn) [Example 267, N-ethyl-1-methyl-N-((aR)-6-(4-oxo-3,4-dihydrophthalazin-1-yl)spiro[3.3]heptan-2-yl)-1H-indazole-3-carboxamide] | 100 to 2100 nM
[H][C@]1(c2n[nH]c(=O)c3ccccc32)C[C@]2(C[C@@H](NC(=O)c3cnn4cc(OCC(C)(C)OC(=O)CN)ccc34)C2)C1 (stereo partly drawn) [Example 268, 2-methyl-1-((3-(((aR)-6-(4-oxo-3,4-dihydrophthalazin-1-yl)spiro[3.3]heptan-2-yl)carbamoyl)pyrazolo[1,5-a]pyridin-6-yl)oxy)propan-2-yl2-aminoacetate, TFA] | 0.2 to 2 nM
[H][C@]1(c2n[nH]c(=O)c3ccccc32)C[C@]2(C[C@@H](NC(=O)c3cnn4cc(OCC(C)(C)OC(=O)[C@@H](N)C(C)C)ccc34)C2)C1 (stereo partly drawn) [Example 269, (S)-2-methyl-1-((3-(((aR)-6-(4-oxo-3,4-dihydrophthalazin-1-yl)spiro[3.3]heptan-2-yl)carbamoyl)pyrazolo[1,5-a]pyridin-6-yl)oxy)propan-2-yl2-amino-3-methylbutanoate, TFA] | 0.2 to 2 nM
[H][C@]1(c2n[nH]c(=O)c3ccccc32)C[C@]2(C[C@@H](NC(=O)c3cnn4cc(OCC(C)(C)OC(=O)[C@H](C)N)ccc34)C2)C1 (stereo partly drawn) [Example 270, (S)-2-methyl-1-((3-(((aR)-6-(4-oxo-3,4-dihydrophthalazin-1-yl)spiro[3.3]heptan-2-yl)carbamoyl)pyrazolo[1,5-a]pyridin-6-yl)oxy)propan-2-yl2-aminopropanoate, TFA] | 0.2 to 2 nM
CC(C)(O)COc1ccc2c(C(=O)NC3CC4(C3)CC(c3c[nH]c(=O)c5ccccc35)C4)cnn2c1 (stereo not drawn) [Example 271, 6-(2-hydroxy-2-methylpropoxy)-N-(6-(1-oxo-1,2-dihydroisoquinolin-4-yl)spiro[3.3]heptan-2-yl)pyrazolo[1,5-a]pyridine-3-carboxamide] | 2.01 to 5 nM
CC(C)(C)OC(=O)N1CCc2c(C(=O)N[C@H]3CC4(C3)C[C@H](c3n[nH]c(=O)c5ccccc53)C4)csc2C1 (stereo partly drawn) [Example 272, tert-butyl 3-(((aR)-6-(4-oxo-3,4-dihydrophthalazin-1-yl)spiro[3.3]heptan-2-yl)carbamoyl)-4,5-dihydrothieno[2,3-c]pyridine-6(7H)-carboxylate] | 5.1 to 15 nM
CC(=O)N1CCc2c(C(=O)N[C@H]3CC4(C3)C[C@H](c3n[nH]c(=O)c5ccccc53)C4)csc2C1 (stereo partly drawn) [Example 274, 6-acetyl-N-((aR)-6-(4-oxo-3,4-dihydrophthalazin-1-yl)spiro[3.3]heptan-2-yl)-4,5,6,7-tetrahydrothieno[2,3-c]pyridine-3-carboxamide] | 5.1 to 15 nM
COC(=O)N1CCc2c(C(=O)N[C@H]3CC4(C3)C[C@H](c3n[nH]c(=O)c5ccccc53)C4)csc2C1 (stereo partly drawn) [Example 275, methyl 3-(((aR)-6-(4-oxo-3,4-dihydrophthalazin-1-yl)spiro[3.3]heptan-2-yl)carbamoyl)-4,5-dihydrothieno[2,3-c]pyridine-6(7H)-carboxylate] | 5.1 to 15 nM
CS(=O)(=O)N1CCc2c(C(=O)N[C@H]3CC4(C3)C[C@H](c3n[nH]c(=O)c5ccccc53)C4)csc2C1 (stereo partly drawn) [Example 276, 6-(methylsulfonyl)-N-((aR)-6-(4-oxo-3,4-dihydrophthalazin-1-yl)spiro[3.3]heptan-2-yl)-4,5,6,7-tetrahydrothieno[2,3-c]pyridine-3-carboxamide] | 15.1 to 100 nM
Cn1cc(-c2ccc3c(C(=O)N[C@H]4CC5(C4)C[C@H](c4n[nH]c(=O)c6ccccc64)C5)onc3c2)cn1 (stereo partly drawn) [Example 277, 6-(1-methyl-1H-pyrazol-4-yl)-N-((aR)-6-(4-oxo-3,4-dihydrophthalazin-1-yl)spiro[3.3]heptan-2-yl)benzo[c]isoxazole-3-carboxamide] | 0.2 to 2 nM
CC(C)(O)Cn1nc(C(=O)NC2CC3(C2)CC(c2n[nH]c(=O)n4cccc24)C3)c2ccccc21 (stereo not drawn) [Example 278, 1-(2-hydroxy-2-methylpropyl)-N-(6-(4-oxo-3,4-dihydropyrrolo[1,2-d][1,2,4]triazin-1-yl)spiro[3.3]heptan-2-yl)-1H-indazole-3-carboxamide, TFA] | 5.1 to 15 nM
CC(C)(O)COc1ccc2c(C(=O)NC3CC4(C3)CC(c3n[nH]c(=O)n5cccc35)C4)cnn2c1 (stereo not drawn) [Example 279, 6-(2-hydroxy-2-methylpropoxy)-N-(6-(4-oxo-3,4-dihydropyrrolo[1,2-d][1,2,4]triazin-1-yl)spiro[3.3]heptan-2-yl)pyrazolo[1,5-a]pyridine-3-carboxamide, TFA] | 2.01 to 5 nM
Cn1nc(C(=O)NC2CC3(C2)CC(c2n[nH]c(=O)n4cccc24)C3)c2ccccc21 (stereo not drawn) [Example 280, 1-methyl-N-(6-(4-oxo-3,4-dihydropyrrolo[1,2-d][1,2,4]triazin-1-yl)spiro[3.3]heptan-2-yl)-1H-indazole-3-carboxamide, TFA] | 5.1 to 15 nM
Cc1ccn2c(=O)[nH]nc(C3CC4(CC(NC(=O)c5cnn6cc(OCC(C)(C)O)ccc56)C4)C3)c12 (stereo not drawn) [Example 281, 6-(2-hydroxy-2-methylpropoxy)-N-(6-(8-methyl-4-oxo-3,4-dihydropyrrolo[1,2-d][1,2,4]triazin-1-yl)spiro[3.3]heptan-2-yl)pyrazolo[1,5-a]pyridine-3-carboxamide, TFA] | 5.1 to 15 nM
O=C(NC1CC2(C1)CC(c1n[nH]c(=O)c3ccccc13)C2)c1cnn2cccnc12 [Example 282, N-((aR)-6-(4-oxo-3,4-dihydrophthalazin-1-yl)spiro[3.3]heptan-2-yl)pyrazolo[1,5-a]pyrimidine-3-carboxamide] | 100 to 2100 nM
Cc1cc(C)cc(Nc2ccc3ncc(C(=O)NC4CC5(C4)CC(c4n[nH]c(=O)c6ccccc46)C5)n3n2)c1 [Example 283, 6-((3,5-dimethylphenyl)amino)-N-((aR)-6-(4-oxo-3,4-dihydrophthalazin-1-yl)spiro[3.3]heptan-2-yl)imidazo[1,2-b]pyridazine-3-carboxamide] | 100 to 2100 nM
O=C(N[C@H]1CC2(C1)C[C@H](c1n[nH]c(=O)c3ccccc31)C2)c1onc2cc(Br)ccc12 (stereo partly drawn) [Example 284, 6-bromo-N-((aR)-6-(4-oxo-3,4-dihydrophthalazin-1-yl)spiro[3.3]heptan-2-yl)benzo[c]isoxazole-3-carboxamide] | 2.01 to 5 nM
